Here are results for 77 compounds from PubChem BioAssay AID856 (The Scripps Research Institute Molecular Screening Center, 2007).

Several values for one entry are separate records, joined by “and”; a condition that tells them apart may be missing. Equal values may be shown once. Activity calls are given as the source filed them. The rule behind the calls is not given here.

The test system of this test is CRE-bla reporter cells, beta-lactamase FRET, antagonist mode. As to the kind of experiment: inhibition of CRE beta-lactamase reporter – cell-based, beta-lactamase FRET, counter-screen for S1P2 antagonist project, dose response (AID 856). (In general: The purpose of a counterscreen is to sort out artefacts and off-target activity.)
In general, IC50 refers to the concentration needed to halve the response being measured. With `O=C(Nc1ccc(F)cc1)c1sc(-c2ccccc2)nc1C(F)(F)F`, the IC50 is > 40000 nM (inactive). As for `Cc1nn(-c2ccccc2)c2c1C(c1ccc(O)c(O)c1)N1C(=N2)C(Nc2ccccc2)=Nc2ccccc21` (configuration not stated), the IC50 was 10500 nM (inactive). For the compound `FC(F)(F)c1cnc2c(-c3cccs3)c(-c3ncn[nH]3)sc2c1`, the IC50 was > 40000 nM (inactive). The same measure for `O=C(c1cc(NC(=O)C23CC4CC(CC(C4)C2)C3)cc(NC(=O)C23CC4CC(CC(C4)C2)C3)c1)N1CCCCC1`: 793 nM; for `COc1ccc(OC)c(NC(=O)CSc2ncnc3c2cnn3-c2ccccc2Cl)c1`: 640 nM. On to `O=C(O)c1sc2cc(C(F)(F)F)cnc2c1-c1cccs1`, for which the IC50 is > 40000 nM (inactive).

`Cn1c2c(c(=O)n(C)c1=O)C(C(F)(F)F)(C(F)(F)F)N=C(c1ccc(Cl)cc1)N2`: the concentration for half-maximal inhibition (IC50) is 1200 nM. For the compound `O=C(Nc1ccc(S(=O)(=O)N2CCOCC2)cc1)c1ccc(CN2CCc3ccccc3C2)cc1`, the concentration for half-maximal inhibition (IC50) was 773 nM. For `Cc1n[nH]c(C)c1N1C(=O)c2cccc3c(Br)ccc(c23)C1=O`, the IC50 was 5750 nM. For the compound `O=C(O)c1sc2cc(C(F)(F)F)cnc2c1-c1cccnc1`, the IC50 was > 40000 nM (inactive).

On to `O=C(Nc1ccc(F)cc1)c1cccs1`, for which the IC50 is > 40000 nM (inactive). Regarding `COC(=O)C1CN(C#N)N(c2ccc(Cl)cc2)C12c1ccccc1-c1ccccc12` (configuration not stated), the 50% inhibitory concentration (IC50) was 607 nM. For the compound `CCOC(=O)C1C(=O)CC(C)(O)C(C(=O)OCC)C1c1ccccc1` (configuration not stated), the IC50 was > 50000 nM (inactive). `CN(C)C=NC(=O)c1sc2cc(C(F)(F)F)cnc2c1-c1cccs1`: the IC50 was > 40000 nM (inactive). With `CC1=C(C)/C(=N\OS(=O)(=O)c2ccccc2)C=CC1=O`, the IC50 was 2650 nM. On to `Cc1ccc2[nH]c3c(N4CCCCCC4)ncnc3c2c1`, for which the IC50 is 1810 nM.

In the case of `CCN(CC)c1ccc2c(Cl)c(Br)c(=O)oc2c1`, the IC50 is 4370 nM. For `COC(=O)c1sc2cc(C(F)(F)F)cnc2c1-c1ccccc1`, the IC50 is > 40000 nM (inactive).

In the case of `O=C(O)c1sc2cc(C(F)(F)F)cnc2c1-c1ccccc1`, the IC50 is > 40000 nM (inactive).

Consider `N#C/C(=C/c1ccc(N2CCCCCC2)o1)c1ccc(F)cc1`, for which the concentration for half-maximal inhibition (IC50) was 9670 nM.

Take `Cc1ccc(C(=O)OCn2ncc(Cl)c(Cl)c2=O)cc1`: the half-maximal inhibitory concentration (IC50) was 3080 nM. With `O=C(OCn1ncc(Cl)c(Cl)c1=O)c1ccccc1Cl`, the IC50 is 2580 nM. Regarding `O=C(Nc1ccc(F)cc1)c1sc2cc(C(F)(F)F)cnc2c1-c1cccs1`, the IC50 was > 50 µM (inactive) and > 40 µM (inactive).

As for `Cc1ccc2[nH]c3c(N4CCc5ccccc5C4)ncnc3c2c1`, the IC50 was 569 nM.

For `Cc1nc2c(=O)n(C)c(=O)nc-2n(C)n1`, the concentration for half-maximal inhibition (IC50) was 1270 nM.

On to `CCN1/C(=C/c2ccc3ccccc3[n+]2CC)C=Cc2ccccc21`, for which the IC50 was 1080 nM. The same measure for `COc1ccccc1C(=O)Nc1nc(-c2ccc(S(=O)(=O)N3CCOCC3)cc2)cs1`: 2250 nM. As to `Cn1c(-c2c(N)n(CCCc3ccccc3)c3nc4ccccc4nc23)nc2ccccc21`, the IC50 is > 50000 nM (inactive). The same measure for `COc1cccc(-c2nnc3n2N=C(C(C)(C)C)CS3)c1`: 1070 nM; for `O=C(Nc1ccc(F)cc1)c1sccc1S(=O)(=O)Cc1cccc(C(F)(F)F)c1`: > 40000 nM (inactive); for `CCCCCCCCCCn1c2c(c(=N)c3c1CCC3)CCC2`: 333 nM. The same measure for `CC(=O)Nc1cc(OC(C)=O)c2nonc2c1OC(C)=O`: 3340 nM; for `COc1ccc2c(c1)[nH]c1c(N3CCN(Cc4ccc5c(c4)OCO5)CC3)ncnc12`: 1400 nM. As to `CCN(C(=O)c1ccc(C(C)(C)C)cc1)c1nnc(Cn2nnc3ccccc32)s1`, the IC50 was 1800 nM. Consider `Nc1nc(Cl)cc(N2CCC(c3cc(-c4ccc(Cl)cc4)n[nH]3)CC2)n1`, for which the half-maximal inhibitory concentration (IC50) was 1490 nM.

Take `Cc1ccc(NC2=Nc3ccccc3N3C2=Nc2c(c(C)nn2-c2ccccc2)C3c2ccc(O)c(O)c2)cc1` (configuration not stated): the half-inhibitory concentration (IC50) was 9980 nM.

Turning to `COC(=O)c1sc2cc(C(F)(F)F)cnc2c1-c1ccccn1`, the IC50 was > 40000 nM (inactive). The same measure for `O=C(Nc1ccc(F)cc1)c1cc(-c2cccs2)nc2ccccc12`: > 40000 nM (inactive); for `CCN1/C(=C\C=C\C2=[N+](CC)c3ccccc3C2(C)C)C(C)(C)c2ccccc21`: 64 nM; for `CCC(NC(=O)Nc1nnc(C(F)(F)F)s1)(C(F)(F)F)C(F)(F)F`: 1260 nM. As for `NC(=O)c1sc2cc(C(F)(F)F)cnc2c1-c1cccs1`, the IC50 was > 40000 nM (inactive).

On to `COc1ccc(CS(=O)(=O)/C(Cl)=C(/Cl)C(=O)Nc2ccc(OC)nc2)cc1`, for which the half-maximal inhibitory concentration (IC50) is 1840 nM. As to `CCOC(=O)N1CCN(C(=O)CSCC(=O)Nc2nc(-c3ccc(-c4ccccc4)cc3)cs2)CC1`, the IC50 was 873 nM. The same measure for `Cc1ccsc1C(=O)Nc1ccc(F)cc1`: > 40000 nM (inactive); for `O=C(O)c1sc2cc(C(F)(F)F)cnc2c1-c1ccco1`: > 40000 nM (inactive). Consider `O=S1(=O)C=C(Sc2nc3cc(Cl)ccc3o2)c2ccccc21`, for which the half-maximal inhibitory concentration (IC50) was 4040 nM. For the compound `CC1=C/C(=N\OS(=O)(=O)c2ccccc2)C(C)=CC1=O`, the IC50 was 2390 nM. The same measure for `CCCCCCCCCn1c2c(c(=N)c3c1CCC3)CCC2`: 459 nM; for `N#CC(c1cccc(Cl)c1)c1ccc2c(C(F)(F)F)cc(C(F)(F)F)nc2n1` (configuration not stated): 90 nM; for `FC(F)(F)c1cnc2c(-c3cccs3)csc2c1`: > 40000 nM (inactive).

For the compound `CC1=C/C(=N\OS(=O)(=O)c2ccccc2)C=CC1=O`, the half-maximal inhibitory concentration (IC50) was 2920 nM. `COc1ccc(NC(=O)/C(Cl)=C(/Cl)S(=O)Cc2ccccc2)cn1` (configuration not stated): the concentration for half-maximal inhibition (IC50) was 1280 nM. The same measure for `CCCCCCCCNc1ncnc2ccccc12`: 42 nM; for `COc1ccc(NC(=O)/C(Cl)=C(/Cl)S(=O)(=O)Cc2ccc(C)cc2)cn1`: 1430 nM; for `Cc1cc(/C=N/n2cnnc2)c(C)n1-c1ccc(OCc2ccc(Cl)cc2)cc1`: 362 nM. In the case of `CCCC(=O)N1CCN(c2ccc(NC(=O)c3cc4ccccc4o3)cc2Cl)CC1`, the half-maximal inhibitory concentration (IC50) was 2950 nM.

In the case of `O=C(C#Cc1cccc([N+](=O)[O-])c1)c1ccccc1`, the concentration for half-maximal inhibition (IC50) is 2270 nM.

As for `O=C(c1sc2cc(C(F)(F)F)cnc2c1-c1ccccc1)N1CCOCC1`, the IC50 is > 40000 nM (inactive). Consider `O=C(OCn1ncc(Cl)c(Cl)c1=O)c1ccc(F)cc1`, for which the IC50 is 3810 nM. `COC(=O)c1sc2cc(C(F)(F)F)cnc2c1-c1cccnc1`: the IC50 was > 40000 nM (inactive). The same measure for `CCOC(=O)c1cnc(-n2nc(C)cc2C)nc1NC1CCCCC1`: 1750 nM; for `O=S(=O)(C/C(=C/CO)S(=O)(=O)c1ccccc1)c1ccccc1`: 3710 nM; for `Cc1nc(-c2cccs2)sc1C(=O)Nc1ccc(F)cc1`: > 40000 nM (inactive). In the case of `Cc1ccc(-n2c(-c3ccc(Br)cc3)c[n+]3c2CCc2ccc4cccnc4c2-3)cc1`, the half-maximal inhibitory concentration (IC50) was 1490 nM. On to `COc1ccc(NC(=O)/C(Cl)=C(/Cl)S(=O)(=O)Cc2ccccc2)cn1`, for which the IC50 was 1560 nM. The same measure for `Cn1nc(-c2ccc(Cl)cc2)nc2c(=O)n(C)c(=O)nc1-2`: 634 nM; for `CN(C)C=NC(=O)c1sc2cc(C(F)(F)F)cnc2c1-c1ccccc1`: > 40000 nM (inactive). For the compound `COc1ccc(NC(=O)/C(Cl)=C(/Cl)S(=O)Cc2ccc(C)cc2)cn1` (configuration not stated), the half-maximal inhibitory concentration (IC50) is 752 nM. Consider `CCCCS(=O)(=O)/C=C\C=C/S(=O)(=O)CCCC`, for which the half-maximal inhibitory concentration (IC50) was 1960 nM. Regarding `CCn1c(=O)c(C(=O)Nc2nc3ccccc3[nH]2)c(O)c2ccccc21`, the IC50 is 29100 nM (inactive). With `O=C(O)c1sc2cc(C(F)(F)F)cnc2c1-c1ccccn1`, the IC50 was > 40000 nM (inactive). Regarding `Cc1ccc(-c2nn(-c3ccccc3)cc2/C=N/NC(=O)c2ccc(Br)o2)cc1`, the IC50 is 1820 nM.

Turning to `O=C(NC(Nc1nc2ccc([N+](=O)[O-])cc2s1)(C(F)(F)F)C(F)(F)F)c1ccccc1`, the half-maximal inhibitory concentration (IC50) was 101 nM. The same measure for `Fc1ccc(-n2nnnc2-c2cnc(-c3cccs3)nc2C(F)(F)F)cc1`: 2920 nM; for `Cn1c(-c2c(N)n(C3CCCC3)c3nc4ccccc4nc23)nc2ccccc21`: 2370 nM.

Consider `COC(=O)c1sc2cc(C(F)(F)F)cnc2c1-c1cccs1`, for which the IC50 is > 40000 nM (inactive). On to `Cc1cccc(NC2=Nc3ccccc3N3C2=Nc2c(c(C)nn2-c2ccccc2)C3c2ccc(O)c(O)c2)c1` (configuration not stated), for which the 50% inhibitory concentration (IC50) is 8000 nM.
